In ChEMBL document CHEMBL3792367, “Synthesis and molecular modeling of antimicrobial active fluoroquinolone-pyrazine conjugates with amino acid linkers” (2016):
Converted amounts (≈) assume the structure as drawn.

Assays:
Pseudomonas aeruginosa = assay: Antibacterial activity against Pseudomonas aeruginosa ATCC 27853 after 18 hrs by agar dilution method; assay type: functional; details: ATCC 27853, 18 h
Staphylococcus aureus = assay: Antibacterial activity against Staphylococcus aureus ATCC 25923 after 18 hrs by agar dilution method; assay type: functional; details: ATCC 25923, 18 h
Salmonella typhi = assay: Antibacterial activity against Salmonella typhi ATCC 19430 after 18 hrs by agar dilution method; assay type: functional, Salmonella enterica subsp. enterica serovar Typhi; details: Salmonella enterica, ATCC 19430, 18 h
Streptococcus pyogenes = assay: Antibacterial activity against Streptococcus pyogenes ATCC 19615 after 18 hrs by agar dilution method; assay type: functional; details: ATCC 19615, 18 h

With `CCn1cc(C(=O)O)c(=O)c2cc(F)c(N3CCN(C(=O)CNC(=O)c4cnccn4)CC3)cc21` the MIC (Pseudomonas aeruginosa) was 2490 µM (≈ 1200 µg/mL), the MIC (Staphylococcus aureus) was 0.648 µM (≈ 0.313 µg/mL) and the MIC (Salmonella typhi) was 1300 µM (≈ 625 µg/mL). For the same compound, the MIC (Streptococcus pyogenes) was 1300 µM (≈ 625 µg/mL).
Work on `O=C(NCC(=O)N1CCN(c2cc3c(cc2F)c(=O)c(C(=O)O)cn3C2CC2)CC1)c1cnccn1` yielded an MIC (Pseudomonas aeruginosa) of 2530 µM (≈ 1250 µg/mL), an MIC (Staphylococcus aureus) of 2.53 µM (≈ 1.25 µg/mL) and an MIC (Salmonella typhi) of 2530 µM (≈ 1250 µg/mL). The MIC (Streptococcus pyogenes) was 2530 µM (≈ 1250 µg/mL).
`O=C(O)c1cn(C2CC2)c2cc(N3CCNCC3)c(F)cc2c1=O` [CIPROFLOXACIN] was tested, and the MIC (Pseudomonas aeruginosa) was 14.5 µM (≈ 4.8 µg/mL), the MIC (Staphylococcus aureus) was 3.77 µM (≈ 1.25 µg/mL) and the MIC (Salmonella typhi) was 7.2 µM (≈ 2.39 µg/mL). The MIC (Streptococcus pyogenes) was 3770 µM (≈ 1250 µg/mL).
In the case of `CCn1cc(C(=O)O)c(=O)c2cc(F)c(N3CCN(C(=O)[C@H](C)NC(=O)c4cnccn4)CC3)cc21`, the MIC (Pseudomonas aeruginosa) is reported as 2520 µM (≈ 1250 µg/mL), the MIC (Staphylococcus aureus) is reported as 0.629 µM (≈ 0.312 µg/mL) and the MIC (Salmonella typhi) is reported as 2520 µM (≈ 1250 µg/mL). It also gave an MIC (Streptococcus pyogenes) of 1260 µM (≈ 625 µg/mL).
Compound `CCn1cc(C(=O)O)c(=O)c2cc(F)c(N3CCN(C(=O)CCNC(=O)c4cnccn4)CC3)cc21` has an MIC (Pseudomonas aeruginosa) of 2520 µM (≈ 1250 µg/mL), an MIC (Staphylococcus aureus) of 0.628 µM (≈ 0.312 µg/mL) and an MIC (Salmonella typhi) of 2520 µM (≈ 1250 µg/mL). The MIC (Streptococcus pyogenes) was 1260 µM (≈ 625 µg/mL).
`O=C(NCCCC(=O)N1CCN(c2cc3c(cc2F)c(=O)c(C(=O)O)cn3C2CC2)CC1)c1cnccn1` was tested, and the MIC (Pseudomonas aeruginosa) was 597 µM (≈ 312 µg/mL), the MIC (Staphylococcus aureus) was 0.0746 µM (≈ 0.039 µg/mL) and the MIC (Salmonella typhi) was 2390 µM (≈ 1250 µg/mL). For the same compound, the MIC (Streptococcus pyogenes) was 149 µM (≈ 78 µg/mL).
`CCn1cc(C(=O)O)c(=O)c2cc(F)c(N3CCNCC3)cc21` [NORFLOXACIN] was tested, and the MIC (Pseudomonas aeruginosa) was 15 µM (≈ 4.79 µg/mL), the MIC (Staphylococcus aureus) was 3.91 µM (≈ 1.25 µg/mL) and the MIC (Salmonella typhi) was 7.5 µM (≈ 2.4 µg/mL). It also gave an MIC (Streptococcus pyogenes) of 1960 µM (≈ 625 µg/mL).
In the case of `O=C(NCCC(=O)N1CCN(c2cc3c(cc2F)c(=O)c(C(=O)O)cn3C2CC2)CC1)c1cnccn1`, the MIC (Pseudomonas aeruginosa) is reported as 2460 µM (≈ 1250 µg/mL), the MIC (Staphylococcus aureus) is reported as 0.307 µM (≈ 0.156 µg/mL) and the MIC (Salmonella typhi) is reported as 2460 µM (≈ 1250 µg/mL). For the same compound, the MIC (Streptococcus pyogenes) was 614 µM (≈ 312 µg/mL).
Work on `C[C@H](NC(=O)c1cnccn1)C(=O)N1CCN(c2cc3c(cc2F)c(=O)c(C(=O)O)cn3C2CC2)CC1` yielded an MIC (Pseudomonas aeruginosa) of 2460 µM (≈ 1250 µg/mL), an MIC (Staphylococcus aureus) of 2.46 µM (≈ 1.25 µg/mL) and an MIC (Salmonella typhi) of 2460 µM (≈ 1250 µg/mL). For the same compound, the MIC (Streptococcus pyogenes) was 2460 µM (≈ 1250 µg/mL).
`CCn1cc(C(=O)O)c(=O)c2cc(F)c(N3CCN(C(=O)CCCNC(=O)c4cnccn4)CC3)cc21` showed an MIC (Pseudomonas aeruginosa) of 2450 µM (≈ 1250 µg/mL), an MIC (Staphylococcus aureus) of 2.45 µM (≈ 1.25 µg/mL) and an MIC (Salmonella typhi) of 76.4 µM (≈ 39 µg/mL). The MIC (Streptococcus pyogenes) was 2450 µM (≈ 1250 µg/mL).
